Values belong to the compound of their own block, whether it stands above or below them.
What was measured:
[1] = Cytotoxicity against human TZM-bl cells assessed as reduction in cell viability by Cell Titer-Glo assay; assay type: cell-based
[2] = Stability of the compound assessed as drug degradation at 10 umol measured after 5 mins by HPLC analysis; assay type: physicochemical; conditions: at 10 µmol, read-out: Drug degradation
[3] = Stability of the compound assessed as drug degradation at 10 umol measured after 1 mins by HPLC analysis; assay type: physicochemical; conditions: at 10 µmol, read-out: Drug degradation
[4] = Stability of the compound assessed as drug degradation at 10 umol measured after 25 mins by HPLC analysis; assay type: physicochemical; conditions: at 10 µmol, read-out: Drug degradation
[5] = target: Envelope glycoprotein gp160 (Human immunodeficiency virus 1) (UniProt Q6QLK5); assay: Inhibition of HIV1 KP-5mvcR gp120 interaction with CD4 in human TZM-bl cells assessed as decrease in viral entry at 0.1 uM by […] assay relative to control; assay type: cell-based
Sequence of Envelope glycoprotein gp160 (Human immunodeficiency virus 1) (Q6QLK5 1-814): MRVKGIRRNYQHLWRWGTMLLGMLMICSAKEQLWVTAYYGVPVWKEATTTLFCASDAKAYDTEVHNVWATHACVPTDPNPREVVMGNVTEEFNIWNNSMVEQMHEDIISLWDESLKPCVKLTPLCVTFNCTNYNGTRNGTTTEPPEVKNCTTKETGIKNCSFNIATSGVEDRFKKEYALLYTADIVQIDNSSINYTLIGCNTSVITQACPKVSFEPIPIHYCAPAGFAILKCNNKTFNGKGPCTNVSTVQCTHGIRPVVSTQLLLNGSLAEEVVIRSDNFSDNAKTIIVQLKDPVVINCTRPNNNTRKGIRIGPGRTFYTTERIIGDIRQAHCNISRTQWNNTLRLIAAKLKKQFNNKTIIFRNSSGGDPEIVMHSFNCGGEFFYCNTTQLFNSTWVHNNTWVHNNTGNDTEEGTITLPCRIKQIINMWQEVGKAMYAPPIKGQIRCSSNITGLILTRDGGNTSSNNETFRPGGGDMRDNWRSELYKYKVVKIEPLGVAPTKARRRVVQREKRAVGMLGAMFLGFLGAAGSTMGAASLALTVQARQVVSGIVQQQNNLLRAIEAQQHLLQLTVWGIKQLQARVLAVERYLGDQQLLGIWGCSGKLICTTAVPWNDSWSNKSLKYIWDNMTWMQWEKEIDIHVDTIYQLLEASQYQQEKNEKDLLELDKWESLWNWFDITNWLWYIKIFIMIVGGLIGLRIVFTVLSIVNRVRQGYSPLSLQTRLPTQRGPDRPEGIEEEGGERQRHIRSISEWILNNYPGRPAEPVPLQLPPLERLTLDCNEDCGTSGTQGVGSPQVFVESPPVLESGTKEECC

[6] = tested on: Simian immunodeficiency virus; assay: Potentiation of KD-247-induced viral neutralizing activity against SHIV KS2661 infected in human TZM-bl cells assessed as fold reduction in KD-247 IC50 for viral neutralization at 10 uM measured after 48 hrs by luciferase assay relative to KD-247; assay type: functional
[7] = Half life of the compound by HPLC analysis; assay type: physicochemical
[8] = Volume of distribution in rhesus monkey at 24 mg/kg, iv measured upto 6 hrs by HPLC analysis; assay type: ADME, organism-based, Macaca mulatta; conditions: in vivo
[9] = Initial drug concentration in rhesus monkey blood at 24 mg/kg, iv measured upto 6 hrs by HPLC analysis; assay type: ADME, organism-based, Macaca mulatta
[10] = Acute toxicity in iv dosed rhesus monkey assessed as maximum tolerated dose; assay type: organism-based, Macaca mulatta; conditions: in vivo
[11] = Half life in rhesus monkey at 24 mg/kg, iv measured upto 6 hrs by HPLC analysis; assay type: ADME, organism-based, Macaca mulatta; conditions: in vivo
[12] = Acute toxicity in rhesus monkey assessed as increase in pulse rate at 24 mg/kg, iv measured within 15 mins; assay type: organism-based, Macaca mulatta; conditions: in vivo, 0.25 h
[13] = Acute toxicity in rhesus monkey assessed as decrease in blood oxygen level at 24 mg/kg, iv measured within 15 mins; assay type: organism-based, Macaca mulatta; conditions: in vivo, 0.25 h
[14] = Acute toxicity in rhesus monkey assessed as animal survival at 24 mg/kg, iv measured after 24 hrs; assay type: organism-based, Macaca mulatta; conditions: in vivo
[15] = Acute toxicity in rhesus monkey assessed as effect on pulse rate at 24 mg/kg, iv measured after 24 hrs; assay type: organism-based, Macaca mulatta; conditions: in vivo
[16] = Acute toxicity in rhesus monkey assessed as effect on blood oxygen levels at 24 mg/kg, iv measured after 24 hrs; assay type: organism-based, Macaca mulatta; conditions: in vivo
[17] = Half life in rhesus monkey at 33.2 mg, iv measured upto 72 hrs by HPLC analysis; assay type: ADME, organism-based, Macaca mulatta; conditions: in vivo
[18] = Half life in rhesus monkey at 36 mg, IM measured upto 48.1 hrs by HPLC analysis; assay type: ADME, Macaca mulatta; conditions: in vivo
[19] = Half life in rhesus monkey at 18 mg, IM measured upto 48.1 hrs by HPLC analysis; assay type: ADME, Macaca mulatta; conditions: in vivo
[20] = Half life in rhesus monkey at 9 mg, IM measured upto 48.1 hrs by HPLC analysis; assay type: ADME, Macaca mulatta; conditions: in vivo
[21] = Cmax in rhesus monkey at 33.2 mg, iv measured upto 72 hrs by HPLC analysis; assay type: ADME, organism-based, Macaca mulatta; parameters: route intravenous, dose 33.2 mg, time <=72; conditions: in vivo
[22] = Cmax in rhesus monkey at 36 mg, IM measured upto 48.1 hrs by HPLC analysis; assay type: ADME, Macaca mulatta; parameters: route intramuscular, dose 36 mg, time <=48.1; conditions: in vivo
[23] = Cmax in rhesus monkey at 18 mg, IM measured upto 48.1 hrs by HPLC analysis; assay type: ADME, Macaca mulatta; parameters: route intramuscular, dose 18 mg, time <=48.1; conditions: in vivo
[24] = Cmax in rhesus monkey at 9 mg, IM measured upto 48.1 hrs by HPLC analysis; assay type: ADME, Macaca mulatta; parameters: route intramuscular, dose 9 mg, time <=48.1; conditions: in vivo
[25] = Volume of distribution in rhesus monkey at 33.2 mg, IV measured upto 72 hrs by HPLC analysis; assay type: ADME, Macaca mulatta; conditions: in vivo
[26] = Volume of distribution in rhesus monkey at 36 mg, IM measured upto 48.1 hrs by HPLC analysis; assay type: ADME, Macaca mulatta; conditions: in vivo
[27] = Volume of distribution in rhesus monkey at 18 mg, IM measured upto 48.1 hrs by HPLC analysis; assay type: ADME, Macaca mulatta; conditions: in vivo
[28] = Volume of distribution in rhesus monkey at 9 mg, IM measured upto 48.1 hrs by HPLC analysis; assay type: ADME, Macaca mulatta; conditions: in vivo
[29] = Toxicity in rhesus monkey assessed as increase in pulse rate at 33.2 mg, iv measured within 25 mins; assay type: organism-based, Macaca mulatta; conditions: in vivo
[30] = Toxicity in rhesus monkey assessed as effect on body motion at 33.2 mg, iv measured within 25 mins; assay type: organism-based, Macaca mulatta; conditions: in vivo

Structure (SMILES): N=C(N)NCCCC[C@H](NC(=N)N)C(=O)NCCN1CCC(NC(=O)C(=O)Nc2ccc(Cl)cc2)CC12CCCCC2 (some centres undefined)
CC50 [1]: 46 µM

degraded at 5 min, 10 umol [2]: 0%
degraded at 1 min, 10 umol [3]: 0%
degraded at 25 min, 10 umol [4]: 20%
Structure (SMILES): COCCOCCOCCOCCOCCNC(=O)CCC(=O)OC(CCCNC(=N)N)C(=O)NCCN1CCC(NC(=O)C(=O)Nc2ccc(Cl)cc2)CC12CCCCC2 (centres undefined) [listing 1 of 2 here]

Structure (SMILES): N=C(N)NCCCCCCCC(=O)NCCCC[C@H](NC(=N)N)C(=O)NCCN1CCC(NC(=O)C(=O)Nc2ccc(Cl)cc2)CC12CCCCC2 (some centres undefined)
CC50 [1]: 44 µM

Structure (SMILES): COCCOCCOCCOCCOCCNC(=O)CCC(=O)OC(CCCN)C(=O)NCCN1CCC(NC(=O)C(=O)Nc2ccc(Cl)cc2)CC12CCCCC2 (centres undefined)
CC50 [1]: 81 µM

Structure (SMILES): N=C(N)NCCCCCCCCCCC(=O)NCCN1CCC(NC(=O)C(=O)Nc2ccc(Cl)cc2)CC12CCCCC2 (centres undefined)
CC50 [1]: 1.1 µM

Structure (SMILES): COCCOCCOCCOCCOCCNC(=O)CCC(=O)OC(CCCNS(=O)(=O)c1ccc([N+](=O)[O-])cc1)C(=O)NCCN1CCC(NC(=O)C(=O)Nc2ccc(Cl)cc2)CC12CCCCC2 (centres undefined)
CC50 [1]: 174 µM

Structure (SMILES): COCCOCCOCCOCCOCCNC(=O)CCC(=O)N[C@@H](CCCNC(=N)N)C(=O)NCCN1CCC(NC(=O)C(=O)Nc2ccc(Cl)cc2)CC12CCCCC2 (some centres undefined)
CC50 [1]: > 100 µM

Structure (SMILES): CCCCCCCCCCCCCCCCNC(=O)CCC(=O)OC(CCCNS(=O)(=O)c1ccc([N+](=O)[O-])cc1)C(=O)NCCN1CCC(NC(=O)C(=O)Nc2ccc(Cl)cc2)CC12CCCCC2 (centres undefined)
CC50 [1]: > 300 µM

Structure (SMILES): CCCCCCCCCCCCCCCCNC(=O)CCC(=O)OC(CCCN)C(=O)NCCN1CCC(NC(=O)C(=O)Nc2ccc(Cl)cc2)CC12CCCCC2 (centres undefined)
CC50 [1]: 5.7 µM

Structure (SMILES): N=C(N)NCCCCCCCC(=O)NCCN1CCC(NC(=O)C(=O)Nc2ccc(Cl)cc2)CC12CCCCC2 (centres undefined)
CC50 [1]: > 300 µM

Structure (SMILES): CC1(C)CC(NC(=O)C(=O)Nc2ccc(Cl)cc2)CC(C)(C)N1
CC50 [1]: 132 µM

inhibition [5]: 65%
Structure (SMILES): COCCOCCOCCOCCOCCOCCOCCOCCOCCOCCOCCOCCOCCOCCOCCOCCOCCOCCOCCOCCOCCOCCOCCOCCNC(=O)CCC(=O)N[C@@H](CCCNC(=N)N)C(=O)NCCN1CCC(NC(=O)C(=O)Nc2ccc(Cl)cc2)CC12CCCCC2 (some centres undefined)
CC50 [1]: 40 µM

Structure (SMILES): COCCOCCOCCOCCOCCOCCOCCOCCOCCOCCOCCOCCNC(=O)CCC(=O)N[C@@H](CCCNC(=N)N)C(=O)NCCN1CCC(NC(=O)C(=O)Nc2ccc(Cl)cc2)CC12CCCCC2 (some centres undefined) [listing 1 of 2 here]
CC50 [1]: > 100 µM
fold change (FC) [6]: 20

Structure (SMILES): COCCOCCOCCOCCOCCOCCOCCOCCOCCOCCOCCOCCNC(=O)CCC(=O)N[C@@H](CCCNC(=N)N)C(=O)NCCN1CCC(NC(=O)C(=O)Nc2ccc(Cl)cc2)CC12CCCCC2 (some centres undefined) [listing 2 of 2 here]
inhibition [5]: 50%

Structure (SMILES): N=C(N)NCCCCC(=O)NCCCC[C@H](NC(=N)N)C(=O)NCCN1CCC(NC(=O)C(=O)Nc2ccc(Cl)cc2)CC12CCCCC2 (some centres undefined)
CC50 [1]: 62 µM

Structure (SMILES): N=C(N)NCCCCCCCCCCC(=O)NCCCC[C@H](NC(=N)N)C(=O)NCCN1CCC(NC(=O)C(=O)Nc2ccc(Cl)cc2)CC12CCCCC2 (some centres undefined)
CC50 [1]: 15 µM

half-life [7]: 126 min
Structure (SMILES): COCCOCCOCCOCCOCCNC(=O)CCC(=O)OC(CCCNC(=N)N)C(=O)NCCN1CCC(NC(=O)C(=O)Nc2ccc(Cl)cc2)CC12CCCCC2 (centres undefined) [listing 2 of 2 here]
CC50 [1]: 109 µM

Structure (SMILES): N=C(N)NCCCCC(=O)NCCN1CCC(NC(=O)C(=O)Nc2ccc(Cl)cc2)CC12CCCCC2.O=C(O)C(F)(F)F.O=C(O)C(F)(F)F (centres undefined)
Vd [8]: 10.8 L
C0 at 6 h [9]: 23.3 µM
MTD [10]: 24 mg/kg
half-life [11]: 31 min
Activity [12]: Toxic
Activity [13]: Toxic
Activity [14]: Non-Toxic
Activity [15]: Non-Toxic
Activity [16]: Non-Toxic

Structure (SMILES): COCCOCCOCCOCCOCCOCCOCCOCCOCCOCCOCCOCCNC(=O)CCC(=O)N[C@@H](CCCNC(=N)N)C(=O)NCCN1CCC(NC(=O)C(=O)Nc2ccc(Cl)cc2)CC12CCCCC2.O=C(O)C(F)(F)F.O=C(O)C(F)(F)F (some centres undefined)
MTD [10]: 3.78 mg/kg
t1/2 [17]: 107.4 min
half-life [18]: 86.4 min
half-life [19]: 58.9 min
half-life [20]: 47.6 min
Cmax [21]: 39.5 µM
Cmax [22]: 128 µM
Cmax [23]: 59.4 µM
Cmax [24]: 56.4 µM
Vd [25]: 592 mL
Vd [26]: 200 mL
Vd [27]: 215 mL
Vd [28]: 114 mL
Activity [29]: Toxic
Activity [30]: Toxic

Structure (SMILES): N=C(N)NCCCCC(=O)NCCN1CCC(NC(=O)C(=O)Nc2ccc(Cl)cc2)CC12CCCCC2 (centres undefined)
CC50 [1]: 65 µM

Structure (SMILES): N=C(N)NCC(=O)NCCCC[C@H](NC(=N)N)C(=O)NCCN1CCC(NC(=O)C(=O)Nc2ccc(Cl)cc2)CC12CCCCC2 (some centres undefined)
CC50 [1]: 42 µM

Structure (SMILES): CCCCCCCCCCCCCCCCNC(=O)CCC(=O)OC(CCCNC(=N)N)C(=O)NCCN1CCC(NC(=O)C(=O)Nc2ccc(Cl)cc2)CC12CCCCC2 (centres undefined)
CC50 [1]: 17 µM
